From patent publication US5688787A, “Substituted β-lactam compounds useful as hypochlesterolemic agents and processes for the preparation thereof” (priority 1996, dated 1997)
Like-named read-outs stand apart in the source and are kept apart here.

Experiments:
ACAT = biological target: T1, ACAT (Rattus norvegicus, UniProt Q7TQM4); assay: ACAT Assay (in vitro); assay type: biochemical; settings: for inhibition at 10 µM: Conc. 10 µM, negative = apparent stimulation, read-out: ACAT (in vitro) % Inhib.
T1 construct: Rat liver microsomes are used as the source of ACAT; from tissue; host or cells: rat liver microsomes
T1 sequence (Q7TQM4 1-524): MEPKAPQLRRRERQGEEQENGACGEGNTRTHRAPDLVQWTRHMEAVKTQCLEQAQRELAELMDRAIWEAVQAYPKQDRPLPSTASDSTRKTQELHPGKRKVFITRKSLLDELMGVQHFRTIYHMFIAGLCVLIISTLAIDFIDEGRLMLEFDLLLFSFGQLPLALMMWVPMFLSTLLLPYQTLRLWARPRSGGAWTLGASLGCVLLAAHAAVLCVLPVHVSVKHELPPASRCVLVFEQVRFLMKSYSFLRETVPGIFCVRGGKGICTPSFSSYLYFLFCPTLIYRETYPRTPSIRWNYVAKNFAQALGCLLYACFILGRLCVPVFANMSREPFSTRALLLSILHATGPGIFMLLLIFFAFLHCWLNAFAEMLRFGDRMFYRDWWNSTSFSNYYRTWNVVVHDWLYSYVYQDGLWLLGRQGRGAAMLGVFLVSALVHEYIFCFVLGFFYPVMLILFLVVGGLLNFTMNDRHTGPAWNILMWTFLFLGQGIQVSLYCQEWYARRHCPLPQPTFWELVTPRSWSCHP

Hyperlipidemic Hamster = assay: In Vivo Assay of Hypolipidemic Agents Using the Hyperlipidemic Hamster; settings: Mesocricetus auratus, po, 168 h, 50 mg/kg once daily oral, 7 days, percent change versus control, negative = lowering
How it was run: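 Hamsters, six per group, were fed chow with 0.5% cholesterol for seven days and given compound once daily by oral gavage in corn oil; controls received corn oil alone. Plasma (EDTA) and liver lipids were measured at sacrifice. Values are percent change versus control, so negative means lowering.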

[1] = read-out: % Reduction (in vivo) Cholest. Esters
[2] = read-out: % Reduction (in vivo) Serum Cholest.

Row | SMILES | inhibition at 10 µM (ACAT) | IC50 (ACAT; rat liver microsomes, read-out: ACAT (in vitro) IC50) | change in vivo at 50 mg/kg (Hyperlipidemic Hamster; [1]) | change in vivo at 50 mg/kg (Hyperlipidemic Hamster; [2])
1 | COc1ccc(N2C(=O)[C@H](CCCc3ccccc3)[C@H]2c2ccc(CN3CCOCC3)cc2)cc1 (relative stereo) [Example 19] | 24% |  | -51% | -20%
2 | CCOc1ccc(N2C(=O)[C@H](CCCc3ccccc3)[C@@H]2c2ccc(OC)cc2)cc1 (relative stereo) [Example 35B] | 65% |  | -99% | -53%
3 | CCCCCCCCCC[C@]1(CC)C(=O)N(c2ccc(OC)cc2)[C@H]1c1ccccc1 (stereo in doubt) [Example 3Q] | 3% |  | 0% | -6%
4 | COc1ccc(N2C(=O)C(c3ccccc3)(C3CCCC3)C2c2ccccc2)cc1 (stereo not shown) [Example 1AC] | 40% |  | -33% | -16%
5 | COc1ccc(N2C(=O)C(CCCc3ccccc3)(CCCc3ccccc3)C2C=Cc2ccccc2)cc1 (stereo not shown) [Example 3N] | 62% |  | 0% | 0%
6 | COc1ccc(C2N(c3ccc(OC)cc3)C(=O)C2(c2ccccc2)c2ccccc2)cc1 (stereo not shown) [Example 7AC] | 31% |  | 0% | 0%

The next lines start with results.

Row | inhibition at 10 µM (ACAT) | IC50 (ACAT; rat liver microsomes, read-out: ACAT (in vitro) IC50) | SMILES | change in vivo at 50 mg/kg (Hyperlipidemic Hamster; [1]) | change in vivo at 50 mg/kg (Hyperlipidemic Hamster; [2])
7 | 18% |  | COc1ccc([C@H]2[C@@H](CCCc3ccccc3)C(=O)N2c2ccc(OCc3ccccc3)cc2)cc1 (relative stereo) [Example 35] | -32% | -15%
8 | 61% |  | COc1cc(OC)c(N2C(=O)C(CCCc3ccccc3)C2c2ccccc2)c(OC)c1 (stereo not shown) [Example 1F] | 20% | 0%
9 | 58% | 19 µM | CCCCCCCCCCC1C(=O)N(c2c(OC)cc(OC)cc2OC)C1c1ccccc1 (stereo not shown) [Example 1U] | 0% | 0%
